Measurements reported in patent US6472526B1, “Imidazole derivatives having an inhibitory activity for farnesyl transferase and process for preparation thereof” (LG Chemical Ltd., priority 1997, dated 2002).

Key:
Ras farnesyl transferase [1] = biological target: T1, Ras farnesyl transferase (Homo sapiens, UniProt P49354+P49356); assay: In vitro inhibitory activity for Ras farnesyl transferase, K-Ras substrate; assay type: biochemical
T1 construct: made in house

Ras farnesyl transferase [2] = biological target: T1, Ras farnesyl transferase; assay: In vitro inhibitory activity for Ras farnesyl transferase, H-Ras substrate; assay type: biochemical
Ras farnesyl transferase [3] = biological target: T2, Ras farnesyl transferase (Rattus norvegicus, UniProt Q02293+Q04631); assay: In vivo (cellular) inhibitory activity for Ras farnesyl transferase, Rat2 cell line which expresses C-Harvey-Ras protein; assay type: cell-based
T2 construct: endogenous in cells; host or cells: Rat2 fibroblasts transformed with H-Ras or with an H-Ras/K-Ras C-terminus fusion
Method in brief: (§1)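 Transformed Rat2 fibroblasts (H-Ras or H-Ras/K-Ras polybasic-tail fusion) treated with compound in 1% DMSO; after 4 h labelled with [35S]methionine 150 μCi/ml for 20 h. Lysates immunoprecipitated with anti-Ras Y13-259, resolved by 13.5% SDS-PAGE and autoradiography; CIC50 = concentration inhibiting 50% of Ras farnesylation from band intensities.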

Ras farnesyl transferase [4] = biological target: T2, Ras farnesyl transferase; assay: In vivo (cellular) inhibitory activity for Ras farnesyl transferase, Rat2 cell line transformed with fused protein of H-Ras substituted with polybasic lysine domain at C-terminus of K-Ras; assay type: cell-based
Method in brief: as §1

[5] = in vitro farnesyl transferase assay, K-Ras, read-out: K-Ras IC50
[6] = recombinant farnesyl transferase 4.5 nM, Ras substrate protein 1.5 μM, tritium-farnesylpyrophosphate 0.15 μM, 30 minutes at 37° C., read-out: H-Ras IC50
[7] = Rat2 cell line expressing C-Harvey-Ras, concentration inhibiting 50% of farnesyl bonding of Ras protein, read-out: H-Ras CIC50
[8] = Rat2 cell line transformed with H-Ras fused with polybasic lysine domain of K-Ras C-terminus, concentration inhibiting 50% of farnesyl bonding, read-out: K-Ras CIC50

Row | Compound | IC50 (Ras farnesyl transferase [1]; [5]) [nM] | IC50 (Ras farnesyl transferase [2]; [6]) [nM] | IC50 (Ras farnesyl transferase [3]; [7]) [nM] | IC50 (Ras farnesyl transferase [4]; [8]) [nM] | IC50 (Ras farnesyl transferase [1]) [nM] | IC50 (Ras farnesyl transferase [2]) [nM] | IC50 (Ras farnesyl transferase [3]) [nM] | IC50 (Ras farnesyl transferase [4]) [nM]
1 | 1-[1-(4-Methoxybenzyl)-1H-imidazol-5-yl]methyl-3-[N-(2-methoxyethyl)-N-methyl]carbamoyl-4-(naphthalen-1-yl)-1H-pyrrole [Compound 129] | 4 | 3 | 25 | 10000 to 50000 | – | – | – | –
2 | O=C(c1ccccc1Cl)c1cn(Cc2c[nH]cn2)cc1-c1cccc2ccccc12 [Compound 55] | 100 to 10000 | 60 | 1000 to 50000 | 10000 to 100000 | – | – | – | –
3 | CN1CCN(C(=O)c2cn(Cc3cncn3Cc3cccc(Cl)c3)cc2-c2cccc3ccccc23)CC1 [Compound 131, 1-[1-(3-Chlorobenzyl)-1H-imidazol-5-yl]methyl-3-(4-methylpiperazin-1-yl)carbonyl-4-(naphthalen-1-yl)-1H-pyrrole] | 2.3 | 1 | 12.5 | 10000 to 50000 | – | – | – | –
4 | COCCN(C)C(=O)c1cn(Cc2cncn2CCCc2ccccc2)cc1-c1cccc2ccccc12 [Compound 27, 3-[N-(2-Methoxyethyl)-N-methyl]carbamoyl-4-(naphthalen-1-yl)-1-[1-(3-pheny)propyl-1H-imidazol-5-yl]methyl-1H-pyrrole] | 5 | 6 | 25 | 10000 to 30000 | – | – | – | –
5 | O=C(c1cn(Cc2c[nH]cn2)cc1-c1cccc2ccccc12)N1CCC(O)CC1 [Compound 91] | 100 to 10000 | 2150 | 1000 to 50000 | 10000 to 100000 | – | – | – | –
6 | COc1cccc(C(=O)c2cn(Cc3c[nH]cn3)cc2-c2cccc3ccccc23)c1 [Compound 53] | 100 to 10000 | 300 | 1000 to 50000 | 10000 to 100000 | – | – | – | –
7 | COC(=O)[C@H](CCSC)NC(=O)c1cn(Cc2c[nH]cn2)cc1-c1cccc2ccccc12 [Compound 80, (S)-1-(1H-Imidazol-4-yl)methyl-3-[N-(1-methoxycarbonyl-3-methylthio)propyl]carbamoyl-4-(naphthalen-1-yl)-1H-pyrrole] | 100 to 10000 | 8210 | 1000 to 50000 | 10000 to 100000 | – | – | – | –
8 | COCCN(C)C(=O)c1cn(Cc2cncn2CCc2ccc(OC)cc2)cc1-c1cccc2ccccc12 [Compound 19, 3-[N-(2-Methoxyethyl)-N-methyl]carbamoyl-1-[1-(4-methoxy)phenethyl-1H-imidazol-5-yl]methyl-4-(naphthalen-1-yl)-1H-pyrrole] | 3 | 1 | 20 | 10000 to 50000 | – | – | – | –
9 | COCCN(C)C(=O)c1cn(Cc2cncn2CCc2ccccc2)cc1-c1cccc2ccccc12 [Compound 14, 3-[N-(2-Methoxyethyl)-N-methyl]carbamoyl-4-(naphthalen-1-yl)-1-[1-(phenethyl)-1H-imidazol-5-ylmethyl]-1H-pyrrole] | 5 | 2 | 12.5 | 10000 to 50000 | – | – | – | –
10 | CN1CCN(C(=O)c2cn(Cc3cncn3Cc3ccc(C#N)cc3)cc2-c2cccc3ccccc23)CC1 [Compound 105] | 90 | 0.4 | 50 | > 50000 | – | – | – | –
11 | O=C(c1ccc(Cl)cc1Cl)c1cn(Cc2c[nH]cn2)cc1-c1cccc2ccccc12 [Compound 57] | 100 to 10000 | 38 | 1000 to 50000 | 10000 to 100000 | – | – | – | –
12 | COC(=O)c1sc(Cc2cncn2CC2CCN(C(=O)OCc3ccccc3)CC2)nc1-c1cccc2ccccc12 [Compound 150] | > 50000 | 8000 | > 50000 | > 50000 | – | – | – | –
13 | CCCCc1c(-c2cccc3ccccc23)c(C(=O)c2ccc(Cl)cc2Cl)cn1Cc1c[nH]cn1 [Compound 71] | 100 to 10000 | 120 | 1000 to 50000 | 10000 to 100000 | – | – | – | –
14 | COCCN(C)C(=O)c1cn(Cc2cncn2CCc2ccc(Br)cc2)cc1-c1cccc2ccccc12 [Compound 33, 1-[1-(4-Bromo)phenethyl-1H-imidazol-5-yl]methyl-3-[N-(2-methoxyethyl)-N-methyl]carbamoyl-4-(naphthalen-1-yl)-1H-pyrrole] | 3 | 2 | 18 | 10000 to 50000 | – | – | – | –
15 | O=C1CCN(C(=O)c2cn(Cc3c[nH]cn3)cc2-c2cccc3ccccc23)CC1 [Compound 92] | – | – | – | – | 100 to 10000 | 70 | 1000 to 50000 | 10000 to 100000
16 | Cc1ccc(Cn2cncc2Cn2cc(C(=O)N3CCOCC3)c(-c3cccc4ccccc34)c2)cc1 [Compound 137] | 2.1 | 1.7 | 20 | 10000 to 20000 | – | – | – | –
17 | O=C(c1cn(Cc2c[nH]cn2)cc1-c1cccc2ccccc12)N1CCS(=O)(=O)CC1 [Compound 87] | 100 to 10000 | 60 | 1000 to 50000 | 10000 to 100000 | – | – | – | –
18 | CN1CCN(C(=O)c2cn(Cc3cncn3Cc3ccc(Br)cc3)cc2-c2cccc3ccccc23)CC1 [Compound 125, 1-[1-(4-Bromobenzyl)-1H-imidazol-5-yl]methyl-3-[4-methylpiperazin-1-yl]carbonyl-4-(naphthalen-1-yl)-1H-pyrrole] | 4 | 2 | 6 | 4000 | – | – | – | –
19 | COCCN(C)C(=O)c1cn(Cc2cncn2C)cc1-c1cccc2ccccc12 [Compound 114, 3-[N-(2-Methoxyethyl)-N-methyl]carbamoyl-1-(1-methyl-1H-imidazol-5-yl)methyl-4-(naphthalen-1-yl)-1H-pyrrole] | 100 | 1 | 15 | < 100000 | – | – | – | –
20 | O=C(c1cccc(-c2ccccc2)c1)c1cn(Cc2c[nH]cn2)cc1-c1cccc2ccccc12 [Compound 65] | 100 to 10000 | 420 | 1000 to 50000 | 10000 to 100000 | – | – | – | –
21 | O=C(c1ccccc1Br)c1cn(Cc2c[nH]cn2)cc1-c1cccc2ccccc12 [Compound 47] | 100 to 10000 | 90 | 1000 to 50000 | 10000 to 100000 | – | – | – | –
22 | CN1CCN(C(=O)c2cn(Cc3cncn3CCc3ccccc3)cc2-c2cccc3ccccc23)CC1 [Compound 16, 3-(4-Methylpiperazin-1-yl)carbonyl-4-(naphthalen-1-yl)-1-[1-(phenethyl)-1H-imidazol-5-ylmethyl)-1H-pyrrole] | 5 | 1.2 | 12.5 | 10000 to 50000 | – | – | – | –
23 | Cc1ccc(CCn2cncc2Cn2cc(C(=O)N3CCN(C)CC3)c(-c3cccc4ccccc34)c2)cc1 [Compound 38, 1-[1-(4-Methyl)phenethyl-1H-imidazol-5-yl]methyl-3-[4-methylpiperazin-1-yl]carbonyl-4-(naphthalen-1-yl)-1H-pyrrole] | 4 | 2 | 25 | 10000 to 50000 | – | – | – | –
24 | COCCN(C)C(=O)c1cn(Cc2cncn2CC(C)C)cc1-c1cccc2ccccc12 [Compound 115, 1-(1-Isobutyl-1H-imidazol-5-yl)methyl-3-[N-(2-methoxyethyl)-N-methyl]carbamoyl-4-(naphthalen-1-yl)-1H-pyrrole] | 35 | 2 | 25 | < 50000 | – | – | – | –
25 | CN1CCN(C(=O)c2cn(Cc3cncn3CCc3ccc(Br)cc3)cc2-c2cccc3ccccc23)CC1 [Compound 34, 1-[1-(4-Bromo)phenethyl-1H-imidazol-5-yl]methyl-3-[4-methylpiperazin-1-yl]carbonyl-4-(naphthalen-1-yl)-1H-pyrrole] | 3 | 2 | 20 | 10000 to 50000 | – | – | – | –
26 | CN1CCN(C(=O)c2cn(Cc3cncn3Cc3ccccc3F)cc2-c2cccc3ccccc23)CC1 [Compound 135, 1-[1-(2-Fluorobenzyl)-1H-imidazol-5-yl]methyl-3-(4-methylpiperazin-1-yl)carbonyl-4-(naphthalen-1-yl)-1H-pyrrole] | 4 | 2.4 | 30 | 10000 to 50000 | – | – | – | –
27 | N#Cc1ccc(Cn2cncc2Cn2cc(C(=O)c3cccs3)c(-c3cccc4ccccc34)c2)cc1 [Compound 73, 1-[1-(4-Cyanobenzyl)-1H-imidazol-5-yl]methyl-4-(naphthalen-1-yl)-3-(thiophen-2-yl)carbonyl-1H-pyrrole] | 20 | 2 | 200 | > 10000 | – | – | – | –
28 | COCCN(C)C(=O)c1cn(Cc2cncn2Cc2ccc3ccccc3c2)cc1-c1cccc2ccccc12 [Compound 29, 3-[N-(2-Methoxyethyl)-N-methyl]carbamoyl-4-(naphthalen-1-yl)-1-[1-(naphthalen-2-yl)methyl-1H-imidazol-5-yl]methyl-1H-pyrrole] | 4 | 2 | 10 | 10000 to 20000 | – | – | – | –
29 | COCCN(C)C(=O)c1cn(Cc2cncn2C(C)c2ccccc2)cc1-c1cccc2ccccc12 (stereo in doubt) [Compound 8, 3-[N-(2-Methoxyethyl)-N-methyl]carbamoyl-1-[1-((R)-α-methylbenzyl)-1H-imidazol-5-ylmethyl]-4-(naphthalen-1-yl)-1H-pyrrole] | 8 | 4 | 25 | 10000 to 50000 | – | – | – | –
30 | COCCN(C)C(=O)c1cn(Cc2cncn2Cc2ccccc2Cl)cc1-c1cccc2ccccc12 [Compound 134, 1-[1-(2-Chlorobenzyl)-1H-imidazol-5-yl]methyl-3-[N-(2-methoxyethyl)-N-methyl]carbamoyl-4-(naphthalen-1-yl)-1H-pyrrole] | 2 | 2.7 | 25 | 10000 to 50000 | – | – | – | –
